Experimental data published in ChEMBL document CHEMBL3132805, “Synthesis of new 13-diphenylalkyl analogues of berberine and elucidation of their base pair specificity and energetics of DNA binding” (Medchemcomm, 2014).
Calls of active or inactive are those of the source. The calls are words filed in the database; no cut-off is given here.

What was measured:
[1] = Binding affinity to poly(dG-dC).poly(dG-dC) DNA (unknown origin) in CP buffer at pH 7.0 at 3 to 24 uM by CD spectroscopy
[2] = Binding affinity to poly(dA-dT).poly(dA-dT) DNA (unknown origin) in CP buffer at pH 7.0 at 3 to 24 uM by CD spectroscopy
[3] = test system: DNA; test: Binding affinity to calf thymus DNA in CP buffer at pH 7.0 at 3 to 24 uM by CD spectroscopy; assay type: nucleic-acid assay; conditions: Bos taurus
[4] = Binding affinity to duplex DNA (unknown origin) assessed as change in melting temperature

Row | ΔTm [4] [°C] | SMILES | Activity [1] | Activity [2] | Activity [3]
1 | 7 | COc1ccc2c(CC(c3ccccc3)c3ccccc3)c3[n+](cc2c1OC)CCc1cc2c(cc1-3)OCO2 | Active | Active | Active
2 | 13 | COc1ccc2cc3[n+](cc2c1OC)CCc1cc2c(cc1-3)OCO2 |  |  | 
3 | 16 | COc1ccc2c(CCC(c3ccccc3)c3ccccc3)c3[n+](cc2c1OC)CCc1cc2c(cc1-3)OCO2 | Active | Active | Active
4 | 17 | COc1ccc2c(CCCCC(c3ccccc3)c3ccccc3)c3[n+](cc2c1OC)CCc1cc2c(cc1-3)OCO2 | Active | Active | Active

Row | SMILES | ΔTm [4] [°C] | Activity [1] | Activity [2] | Activity [3]
5 | COc1ccc2c(CCCC(c3ccccc3)c3ccccc3)c3[n+](cc2c1OC)CCc1cc2c(cc1-3)OCO2 | 19 | Active | Active | Active
6 | COc1ccc2c(CCCCCC(c3ccccc3)c3ccccc3)c3[n+](cc2c1OC)CCc1cc2c(cc1-3)OCO2 | 16.6 | Active | Active | Active
7 | COc1ccc2c(C(c3ccccc3)c3ccccc3)c3[n+](cc2c1OC)CCc1cc2c(cc1-3)OCO2 | 6 | Active | Active | Active
